Columns and labels:
[1] = Test B: Cytotoxicity Assay; assay type: cell-based; settings: human, uninfected MT-4 cells, same protocol as Test A
Outline: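 Uninfected MT-4 cells (2000 per well) incubated with diluted compound at 37° C. for 5 days, following the antiviral protocol without HIV-IIIb.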

HIV-IIIb = assay: Test A: Antiviral Assay in MT4 Cells; assay type: cell-based, HIV-1; settings: Human immunodeficiency virus 1, IIIB, MT4, 120 h; for inhibition at 0.2 µM: read-out: % inhibition at 0.2 μM; for inhibition at 2 µM: read-out: % inhibition at 2 μM
Method: Test A: Antiviral Assay in MT4 Cells
MT-4 cells were next mixed with HIV-IIIb at an m.o.i of 0.003 for 1 hour, after which time 35 μL of virus/cell mixture (2000 cells) was immediately added to each well containing 40 μL of diluted compound. The plates were then incubated at 37° C. for 5 days. […] Cell lysis was carried out by incubating at room temperature for 10 min and then chemiluminescence was read.

Row | Compound | CC50 at 5 days [1] | inhibition at 0.2 µM (HIV-IIIb) | inhibition at 2 µM (HIV-IIIb)
1 | Cn1nc(NS(C)(=O)=O)c2c(Cl)ccc(-c3ccc(C#CC(C)(O)CNC(=O)OC(C)(C)C)nc3[C@H](Cc3cc(F)cc(F)c3)NC(=O)Cn3nc(C(F)(F)F)c4c3C(F)(F)[C@@H]3C[C@H]43)c21 (stereo partly drawn) [Compound 184, tert-butyl (4-(5-(4-chloro-1-methyl-3-(methylsulfonamido)-1H-indazol-7-yl)-6-((S)-1-(2-((3bS,4aR)-5,5-difluoro-3-(trifluoromethyl)-3b,4,4a,5-tetrahydro-1H-cyclopropa[3,4]cyclopenta[1,2-c]pyrazol-1-yl)acetamido)-2-(3,5-difluorophenyl)ethyl)pyridin-2-yl)-2-hydroxy-2-methylbut-3-yn-1-yl)carbamate] | 7.69 µM | 90% | 90%
2 | Cn1nc(NS(C)(=O)=O)c2c(Cl)ccc(-c3cc(-c4cccnc4)cnc3[C@H](Cc3cc(F)cc(F)c3)NC(=O)Cn3nc(C(F)F)c4c3C(F)(F)[C@@H]3C[C@H]43)c21 [Compound 185C, N—((S)-1-(5-(4-chloro-1-methyl-3-(methylsulfonamido)-1H-indazol-7-yl)-[3,3′-bipyridin]-6-yl)-2-(3,5-difluorophenyl)ethyl)-2-((3bS,4aR)-3-(difluoromethyl)-5,5-difluoro-3b,4,4a,5-tetrahydro-1H-cyclopropa[3,4]cyclopenta[1,2-c]pyrazol-1-yl)acetamide] | 18.2 µM | 89% | 89%
3 | Cn1nc(NS(C)(=O)=O)c2c(Cl)ccc(-c3cc(C(N)=O)cnc3[C@H](Cc3cc(F)cc(F)c3)NC(=O)Cn3nc(C(F)F)c4c3C(F)(F)[C@@H]3C[C@H]43)c21 [Compound 186D, 5-(4-chloro-1-methyl-3-(methylsulfonamido)-1H-indazol-7-yl)-6-((S)-1-(2-((3bS,4aR)-3-(difluoromethyl)-5,5-difluoro-3b,4,4a,5-tetrahydro-1H-cyclopropa[3,4]cyclopenta[1,2-c]pyrazol-1-yl)acetamido)-2-(3,5-difluorophenyl)ethyl)nicotinamide] | 1.52 µM | 87% | 87%
4 | Cn1nc(NS(C)(=O)=O)c2c(Cl)ccc(-c3ccc(C#CC(C)(C)O)nc3[C@H](Cc3cccc(F)c3)NC(=O)Cn3nc(C(F)(F)F)c4c3C(F)(F)[C@@H]3C[C@H]43)c21 [Compound 187G, N—((S)-1-(3-(4-chloro-1-methyl-3-(methylsulfonamido)-1H-indazol-7-yl)-6-(3-hydroxy-3-methylbut-1-yn-1-yl)pyridin-2-yl)-2-(3-fluorophenyl)ethyl)-2-((3b-S,4aR)-5,5-difluoro-3-(trifluoromethyl)-3b,4,4a,5-tetrahydro-1H-cyclopropa[3,4]cyclopenta[1,2-c]pyrazol-1-yl)acetamide] | 19.8 µM | 84% | 84%
5 | Cn1nc(NS(C)(=O)=O)c2c(Cl)ccc(-c3ccc(C#CC(C)(C)O)nc3[C@H](Cc3cccc(F)c3)NC(=O)Cn3nc(C(F)F)c4c3C(F)(F)[C@@H]3C[C@H]43)c21 [Compound 188, N—((S)-1-(3-(4-chloro-1-methyl-3-(methylsulfonamido)-1H-indazol-7-yl)-6-(3-hydroxy-3-methylbut-1-yn-1-yl)pyridin-2-yl)-2-(3-fluorophenyl)ethyl)-2-((3b-S,4aR)-3-(difluoromethyl)-5,5-difluoro-3b,4,4a,5-tetrahydro-1H-cyclopropa[3,4]cyclopenta[1,2-c]pyrazol-1-yl)acetamide] | 26.3 µM | 92% | 92%
6 | Cn1nc(NS(C)(=O)=O)c2c(Cl)ccc(-c3ccc(C#CC(C)(C)O)nc3[C@H](Cc3cc(F)cc(F)c3)NC(=O)Cn3nc(C(F)F)cc3C(F)F)c21 [Compound 189, (S)-2-(3,5-bis(difluoromethyl)-1H-pyrazol-1-yl)-N-(1-(3-(4 chloro-1-methyl-3-(methylsulfonamido)-1H-indazol-7-yl)-6-(3-hydroxy-3-methylbut-1-yn-1-yl)pyridin-2-yl)-2-(3,5-difluorophenyl)ethyl)acetamide] | 17.2 µM | 88% | 88%
7 | Cn1nc(NS(C)(=O)=O)c2c(Cl)ccc(-c3ccc(C#CC(C)(C)O)nc3[C@H](Cc3cc(F)cc(F)c3)NC(=O)Cn3nc(C(F)(F)F)c4c3COCC4)c21 [Compound 190, (S)—N-(1-(3-(4 chloro-1-methyl-3-(methylsulfonamido)-1H-indazol-7-yl)-6-(3-hydroxy-3-methylbut-1-yn-1-yl)pyridin-2-yl)-2-(3,5-difluorophenyl)ethyl)-2-(3-(trifluoromethyl)-4,5-dihydropyrano[3,4-c]pyrazol-1(7H)-yl)acetamide] | 13.9 µM | 98% | 98%
8 | Cn1nc(NS(C)(=O)=O)c2c(Cl)ccc(-c3ccc(C#CC(C)(C)O)nc3[C@H](Cc3cc(F)cc(F)c3)NC(=O)Cn3nc(C(F)(F)F)cc3C3CC3)c21 [Compound 191, (S)—N-(1-(3-(4 chloro-1-methyl-3-(methylsulfonamido)-1H-indazol-7-yl)-6-(3-hydroxy-3-methylbut-1-yn-1-yl)pyridin-2-yl)-2-(3,5-difluorophenyl)ethyl)-2-(5-cyclopropyl-3-(trifluoromethyl)-1H-pyrazol-1-yl)acetamide] | 10.1 µM | 91% | 91%
9 | Cc1[nH]c2ccc(O)cc2c1CC(=O)N[C@@H](Cc1cc(F)cc(F)c1)c1nc(C#CC(C)(C)O)ccc1-c1ccc(Cl)c2c(NS(C)(=O)=O)nn(C)c12 [Compound 192, (S)—N-(1-(3-(4 chloro-1-methyl-3-(methylsulfonamido)-1H-indazol-7-yl)-6-(3-hydroxy-3-methylbut-1-yn-1-yl)pyridin-2-yl)-2-(3,5-difluorophenyl)ethyl)-2-(5-hydroxy-2-methyl-1H-indol-3-yl)acetamide] | 28.8 µM | 95% | 98%
10 | Cn1nc(NS(C)(=O)=O)c2c(Cl)ccc(-c3ccc(C#CC(C)(C)O)nc3[C@H](Cc3cc(F)cc(F)c3)NC(=O)Cc3c[nH]c4ccc(F)cc34)c21 [Compound 193, (S)—N-(1-(3-(4 chloro-1-methyl-3-(methylsulfonamido)-1H-indazol-7-yl)-6-(3-hydroxy-3-methylbut-1-yn-1-yl)pyridin-2-yl)-2-(3,5-difluorophenyl)ethyl)-2-(5-fluoro-1H-indol-3-yl)acetamide] | 23.1 µM | 92% | 92%
11 | COc1ccc2[nH]cc(CC(=O)N[C@@H](Cc3cc(F)cc(F)c3)c3nc(C#CC(C)(C)O)ccc3-c3ccc(Cl)c4c(NS(C)(=O)=O)nn(C)c34)c2n1 [Compound 194, (S)—N-(1-(3-(4 chloro-1-methyl-3-(methylsulfonamido)-1H-indazol-7-yl)-6-(3-hydroxy-3-methylbut-1-yn-1-yl)pyridin-2-yl)-2-(3,5-difluorophenyl)ethyl)-2-(5-methoxy-1H-pyrrolo[3,2-b]pyridin-3-yl)acetamide] | 21.3 µM | 84% | 99%
12 | CC(C(=O)N[C@@H](Cc1cc(F)cc(F)c1)c1nc(C#CC(C)(C)O)ccc1-c1ccc(Cl)c2c(NS(C)(=O)=O)nn(C)c12)c1ccccc1 (stereo partly drawn) [Compound 195, N—((S)-1-(3-(4-chloro-1-methyl-3-(methylsulfonamido)-1H-indazol-7-yl)-6-(3-hydroxy-3-methylbut-1-yn-1-yl)pyridin-2-yl)-2-(3,5-difluorophenyl)ethyl)-2-phenylpropanamide] | 11.2 µM | 88% | 90%
13 | Cc1ccc(C)c2c1NC(=O)C2CC(=O)N[C@@H](Cc1cc(F)cc(F)c1)c1nc(C#CC(C)(C)O)ccc1-c1ccc(Cl)c2c(NS(C)(=O)=O)nn(C)c12 (stereo partly drawn) [Compound 196, N—((S)-1-(3-(4-chloro-1-methyl-3-(methylsulfonamido)-1H-indazol-7-yl)-6-(3-hydroxy-3-methylbut-1-yn-1-yl)pyridin-2-yl)-2-(3,5-difluorophenyl)ethyl)-2-(4,7-dimethyl-2-oxoindolin-3-yl)acetamide] | 10.8 µM | 76% | 92%
14 | CCN1CCN(CC(=O)N[C@@H](Cc2cc(F)cc(F)c2)c2nc(C#CC(C)(C)O)ccc2-c2ccc(Cl)c3c(NS(C)(=O)=O)nn(C)c23)CC1 [Compound 197, (S)—N-(1-(3-(4 chloro-1-methyl-3-(methylsulfonamido)-1H-indazol-7-yl)-6-(3-hydroxy-3-methylbut-1-yn-1-yl)pyridin-2-yl)-2-(3,5-difluorophenyl)ethyl)-2-(4-ethylpiperazin-1-yl)acetamide] | 15.4 µM |  | 63%
15 | Cn1nc(NS(C)(=O)=O)c2c(Cl)ccc(-c3ccc(C#CC(C)(C)O)nc3[C@H](Cc3cc(F)cc(F)c3)NC(=O)Cc3noc4ccccc34)c21 [Compound 198, (S)-2-(benzo[d]isoxazol-3-yl)-N-(1-(3-(4 chloro-1-methyl-3-(methylsulfonamido)-1H-indazol-7-yl)-6-(3-hydroxy-3-methylbut-1-yn-1-yl)pyridin-2-yl)-2-(3,5-difluorophenyl)ethyl)acetamide] | 23.7 µM | 64% | 98%
16 | Cc1cc2ncn(CC(=O)N[C@@H](Cc3cc(F)cc(F)c3)c3nc(C#CC(C)(C)O)ccc3-c3ccc(Cl)c4c(NS(C)(=O)=O)nn(C)c34)c2cc1C [Compound 199, (S)—N-(1-(3-(4 chloro-1-methyl-3-(methylsulfonamido)-1H-indazol-7-yl)-6-(3-hydroxy-3-methylbut-1-yn-1-yl)pyridin-2-yl)-2-(3,5-difluorophenyl)ethyl)-2-(5,6-dimethyl-1H-benzo[d]imidazol-1-yl)acetamide] | 22.5 µM | 95% | 95%
